Legend:
calreticulin = assay: Calreticulin expression on infected L929 cell membrane; assay type: cell-based; details: L929 infected with MHV-A59 (FIG. 3)
Protocol: To determine if the P2Et extract of the invention can inhibit virus infection L929 cells were seeded in 12-well plates at a concentration of […] for well and cultured overnight. Cells were pretreated for 2 h with the P2Et or controls, washed twice with PBS 1× and inoculated with 200 μl of the virus suspension to 0.1, 0.01 or 0.001 MOI in DMEM, 1 h at room temperature in mechanical agitation. The virus inoculum was removed, the cells were treated again with extracts for 6, 12 and 24 h. Supernatants were collected for qPCR and plaque assays. The cells were collected for evaluation of proteins by western blot and ROS assays by flow cytometry.
Previously, we have shown that standardized P2Et extract induces immunogenic cell death (ICD), here the expression of calreticulin, a marker of ICD, was evaluated on the L929 cell membrane infected cells.

SARS-CoV-2 virus = details: cited from earlier work

Row | Molecule | expression of calreticulin induced by viral infection on L929 cell surface (calreticulin) | suppression of viral activity (SARS-CoV-2 virus)
1 | CCN(CC)CCCC(C)Nc1ccnc2cc(Cl)ccc12 (stereo not shown) [chloroquine] | decreased | 
2 | epigallocatechin-zinc gallate [EGCG-Zn^+2] |  | greater than 99%
3 | O=c1c(O)c(-c2ccc(O)c(O)c2)oc2cc(O)cc(O)c12 [quercetin] | decreased | 
4 | CC(=O)N[C@@H](CS)C(=O)O [NAC, N-Acetylcysteine] | decreased | 

From patent US20230190848A1 (priority 2021, published 2023)
